# Positions of bridges follow the written chain, without caps; N, C: chain ends. Non-standard residues stand in square brackets, D forms with d. Residues, ends and D or L forms follow the SMILES beside them.
# Key:
# [1] = Acute and 7-day repeat dose rat toxicity; format: in vivo; settings: 1 or 10 mg (5-50 mg/kg) i.v.
# From the text: That is, all animals remained clinically normal throughout.
# [2] = test system: LPS- and MCP-1-induced dermal inflammation; assay: Rat dermal inflammation model (MCP-1 / LPS intradermal); format: in vivo
# Description: To assess the efficacy of an agent of the invention in the prevention of lipopolysaccharide (LPS)- and MCP-1-induced dermal inflammation in the rat, three different doses of CRD-Leu4Ile11Cys13peptide 3(3-12)[MCP-1] were administered. An inflammatory response was elicited by intradermal injection (ventral abdomen) of either 500 ng MCP-1 or 100 ng MCP-1 along with endotoxin-free phosphate-buffered saline vehicle (as a negative control) and bacterial lipopolysaccharide (LPS; as a positive control). Each substance was injected at a different site. The results obtained from animals were compared to CRD-Leu4Ile11Cys13 peptide 3(3-12)[MCP-1] treated, and PBS (diluent control) treated, animals. […] The intradermal sites of agonist injection were collected, bisected and the extent of the inflammatory response was assessed by histopathology and quantitative immunofluorescence (fixed and frozen) (for example, following MCP-1 injection, the number of monocyte/macrophages in the skin was determined using the anti-CD14 (MCA342 from Serotec; clone ED2) at 3 μg/ml overnight at 4° C. The second antibody was rat anti-mouse FITC (415-096-100 from Jackson ImmunoResearch) at 28 μg/ml for 6 hours at room temperature). […]
# ∂-opioid receptors = target: T1, ∂-opioid receptors (Homo sapiens, UniProt P41143); assay: Opioid receptor membrane binding (3H-Diprenorphine)
# T1 construct: purchased RBI/Sigma 0-116
# T1 sequence (P41143 whole entry): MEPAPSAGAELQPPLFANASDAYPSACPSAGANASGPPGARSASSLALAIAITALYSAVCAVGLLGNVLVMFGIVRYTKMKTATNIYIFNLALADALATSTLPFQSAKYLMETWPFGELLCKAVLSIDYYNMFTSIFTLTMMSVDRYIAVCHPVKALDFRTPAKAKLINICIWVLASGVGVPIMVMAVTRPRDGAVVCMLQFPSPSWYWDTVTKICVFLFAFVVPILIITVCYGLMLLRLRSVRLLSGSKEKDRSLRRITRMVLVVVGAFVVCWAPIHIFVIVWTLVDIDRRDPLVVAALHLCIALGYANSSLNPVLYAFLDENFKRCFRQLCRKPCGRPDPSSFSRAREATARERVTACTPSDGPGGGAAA
# Description: For opioid receptor binding, membranes (0-116, RBI/Sigma) are diluted into binding buffer (75 mM Tris pH 7.4, 12.5 mM MgCl2 and 2 mM EDTA). For example, 10 μl of membranes are diluted in 500 μl of binding buffer (i.e., 1:50 dilution), which is aliquoted into labelled tubes. Cold competitor or test competitor is added (e.g. 5 μl of 100× stock solution; 5 μl of 100 μM naltrindole solution (N-115, RBI/Sigma in DMSO). Radioligand is then added (^3H-Diprenorphine, TRK 1060, Amersham, 250 μCi in 250 μl, 10.5 μM at 95 Ci/mmol). For competition studies, 0.5 nM is used. A 100× stock (i.e., […]) is made by diluting the commercial stock 1:210 in binding buffer, and 5 μl is added to every tube. Control tubes have radioligand but no membranes. The mixtures are vortexed, then spun very briefly. The mixtures are then incubated for 1 hour at 27° C. in a water bath. The mixture is filtered through GF/C filters over a vacuum. Each filter is pre-soaked in polyethyleneimine (0.3% in water; add 1 ml of 10% stock (P-261; RBI/Sigma) to 33 ml of MilliQ water). The tubes are washed with 2-3 ml of wash buffer (50 mM Tris pH 7.4) and the wash filtered. The filters are then rinsed with 3×5 ml of wash buffer, air dried, placed in a scintillation vial and 4.5 ml of scintillant added. The activity on the filter is then determined.
# [3] = Stability against acid hydrolysis and trypsin; format: in vitro ADME; settings: 5 units trypsin for 2 hrs at 37° C.
# Description: For example, to prepare a peptide 3 derivative, peptide 3(3-12)[MCP-1] was modified according to Jameson et al. (Nature, 368, 744 (1994)), which yielded CRD-Cys13Leu4Ile11peptide 3(3-12)[MCP-1] (FIG. 3). CRD-Cys13Leu4Ile11peptide 3(3-12)[MCP-1], which had very similar properties to peptide 3(1-12)[MCP-1] […] CRD-Cys13Leu4Ile11peptide 3(3-12)[MCP-1] was also resistant to hydrolysis in vivo and allowed therapeutically useful plasma concentrations to be achieved (>10 μM 24 hours after a single intraperitoneal dose of 1 mg of CRD-Cys13Leu4Ile11peptide 3(3-12)[MCP-1] in 250 μL saline).
smiles,measurement,setting,value
CC[C@@H](C)[C@H]1NC(=O)[C@@H](CCC(N)=O)NC(=O)[C@H](N)CSSC[C@H](C(N)=O)NC(=O)[C@@H](CC(C)C)NC(=O)[C@@H](CC(=O)O)NC(=O)[C@H]2CCCN2C(=O)[C@@H](CCCCN)NC(=O)[C@@H](CCC(N)=O)NC(=O)[C@@H](CCCCN)NC(=O)[C@@H](Cc2c[nH]c3ccccc23)NC1=O (H-[dC][dQ][dI][dW][dK][dQ][dK][dP][dD][dL][dC]-NH2; disulfide 1-11; N-terminus assumed),"acute rat toxicity, clinical findings",[1],no clinically detectable changes
same,recruitment of B-cells to the site of the LPS injection,[2]; rat skin,substantially inhibited
same,MCP-1 induced recruitment of monocyte/macrophages in rat skin,[2]; systemic treatment 30 minutes before intradermal MCP-1,completely abolished
same,EC50,∂-opioid receptors,> 100 µM
same,stability against enzymatic destruction,[3],stable
